The text below walks through data of BindingDB's records for patent US20250179023 (Abbisko Therapeutics, 2025).

The assay has as its target Programmed cell death 1 ligand/protein 1 (Homo sapiens, UniProt Q9NZQ7). Kind of assay: PD1-PDL1 HTRF Binding Activity Test. On the procedure:
The effect of compounds of the examples of the present invention on the PD-1/PD-L1 interaction was determined by the PD-1/PD-L1 binding assay kit from Cisbio (#64ICP01PEG or 64ICP01PEH).

Chain of Programmed cell death 1 ligand/protein 1 (Q9NZQ7 whole entry): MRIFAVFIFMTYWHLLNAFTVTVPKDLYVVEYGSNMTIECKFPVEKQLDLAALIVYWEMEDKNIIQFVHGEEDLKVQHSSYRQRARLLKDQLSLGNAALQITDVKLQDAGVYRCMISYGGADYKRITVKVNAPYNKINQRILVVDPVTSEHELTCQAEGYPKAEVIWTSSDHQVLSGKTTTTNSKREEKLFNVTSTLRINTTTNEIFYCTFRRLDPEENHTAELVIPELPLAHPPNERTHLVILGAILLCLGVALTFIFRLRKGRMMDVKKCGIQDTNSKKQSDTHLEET
Chain of Programmed cell death 1 ligand/protein 1 (Q15116 whole entry, further chain): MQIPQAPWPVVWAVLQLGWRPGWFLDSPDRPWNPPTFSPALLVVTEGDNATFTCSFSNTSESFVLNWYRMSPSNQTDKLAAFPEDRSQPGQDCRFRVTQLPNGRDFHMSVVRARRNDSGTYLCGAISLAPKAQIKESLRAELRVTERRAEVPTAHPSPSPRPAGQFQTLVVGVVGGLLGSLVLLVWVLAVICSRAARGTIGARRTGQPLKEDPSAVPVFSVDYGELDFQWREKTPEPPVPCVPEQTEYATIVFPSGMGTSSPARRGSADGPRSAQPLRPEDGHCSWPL

The term IC50 denotes the midpoint of a concentration-inhibition curve. Lower therefore signals inhibition by little substance. On to `Cc1c(NC(=O)c2cc(C3CC3)c(CNCCC34CCC(C(=O)O)(CC3)C4)cn2)cccc1-c1cccc(NC(=O)c2cc(C3CC3)c(CNC34CCC(C(=O)O)(CC3)C4)cn2)c1C` [US20250179023, Example 5], for which the IC50 is 4.19 nM.
